Test results from PubChem BioAssay AID248 (DTP/NCI, 2004).
“And” between values parts separate entries of the source, which are not always exact repeats. Equal values may be shown once. Inconclusive results and toxic doses are left out. Rule as the data show it: active = T/C of 150% or more; inactive = T/C below 125%.

Test system: L1210 leukemia ip in BDF1 mice, survival T/C
Test: NCI In Vivo Anticancer Drug Screen. Data for tumor model L1210 Leukemia (intraperitoneal) in B6D2F1 (BDF1) mice
Conditions: endpoint: mean survival time, higher = longer survival
Outline: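 Mice bearing the transplanted tumor received compound or vehicle. Survival of the treated group was divided by that of the vehicle-treated control group to give the ratio.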

[1] = dose: 25.0 mg/kg/injection, schedule: Q01DX009 (ip), vehicle: Klucel (hydroxypropylcellulose) (HPC)
[2] = dose: 100.0 mg/kg/injection, schedule: Q01DX009 (ip), vehicle: Klucel (hydroxypropylcellulose) (HPC)
[3] = dose: 100.0 mg/kg/injection, schedule: Q01DX009 (ip), vehicle: saline
[4] = dose: 100.0 mg/kg/injection, schedule: Q04DX003 (ip), vehicle: saline
[5] = dose: 200.0 mg/kg/injection, schedule: Q01DX009 (ip), vehicle: Klucel (hydroxypropylcellulose) (HPC)
[6] = dose: 200.0 mg/kg/injection, schedule: Q04DX003 (ip), vehicle: saline
[7] = dose: 100.0 mg/kg/injection, schedule: Q01DX001 (ip), vehicle: saline with Tween-80
[8] = dose: 100.0 mg/kg/injection, schedule: Q04DX003 (ip), vehicle: Klucel (hydroxypropylcellulose) (HPC)
[9] = dose: 200.0 mg/kg/injection, schedule: Q04DX003 (ip), vehicle: Klucel (hydroxypropylcellulose) (HPC)
[10] = dose: 400.0 mg/kg/injection, schedule: Q01DX009 (ip), vehicle: Klucel (hydroxypropylcellulose) (HPC)
[11] = dose: 400.0 mg/kg/injection, schedule: Q04DX003 (ip), vehicle: Klucel (hydroxypropylcellulose) (HPC)
[12] = dose: 100.0 mg/kg/injection, schedule: Q04DX003 (ip), vehicle: saline with Tween-80
[13] = dose: 200.0 mg/kg/injection, schedule: Q04DX003 (ip), vehicle: saline with Tween-80
[14] = dose: 400.0 mg/kg/injection, schedule: Q04DX003 (ip), vehicle: saline with Tween-80

Measured: T/C

Cc1cc2c(cc1C)NC(C)CC(=O)N2 (stereo not given)
inactive: [1] 109 % of control | dose: 50.0 mg/kg/injection, schedule: Q01DX009 (ip), vehicle: Klucel (hydroxypropylcellulose) (HPC) 98 % of control | [2] 104 % of control | [3] 111 % of control | [4] 96 % of control | dose: 133.0 mg/kg/injection, schedule: Q01DX009 (ip), vehicle: Klucel (hydroxypropylcellulose) (HPC) 99 % of control | [5] 94 % of control and 124 % of control | [6] 108 % of control | dose: 400.0 mg/kg/injection, schedule: Q04DX003 (ip), vehicle: saline 105 % of control

CC(=O)NC(C)(C)CC(C)(C)C
inactive: dose: 12.5 mg/kg/injection, schedule: Q01DX009 (ip), vehicle: Klucel (hydroxypropylcellulose) (HPC) 99 % of control | dose: 12.5 mg/kg/injection, schedule: Q04DX003 (ip), vehicle: Klucel (hydroxypropylcellulose) (HPC) 98 % of control | dose: 25.0 mg/kg/injection, schedule: Q01DX001 (ip), vehicle: saline with Tween-80 98 % of control | [1] 101 % of control | dose: 25.0 mg/kg/injection, schedule: Q04DX003 (ip), vehicle: Klucel (hydroxypropylcellulose) (HPC) 96 % of control | dose: 50.0 mg/kg/injection, schedule: Q01DX001 (ip), vehicle: saline with Tween-80 103 % of control | dose: 50.0 mg/kg/injection, schedule: Q04DX003 (ip), vehicle: Klucel (hydroxypropylcellulose) (HPC) 93 % of control | [7] 105 % of control and 119 % of control

CN1CCN(c2nc3nnnn3c3ccccc23)CC1
inactive: dose: 50.0 mg/kg/injection, schedule: Q04DX003 (ip), vehicle: saline 101 % of control | [4] 104 % of control | [6] 101 % of control

Cc1[nH]c(=O)[nH]c(=O)c1/C=C/C(=O)NC(CO)CC(C)C (stereo not given)
inactive: dose: 12.5 mg/kg/injection, schedule: Q01DX009 (ip), vehicle: saline 98 % of control | dose: 25.0 mg/kg/injection, schedule: Q01DX009 (ip), vehicle: saline 102 % of control and 114 % of control | dose: 50.0 mg/kg/injection, schedule: Q01DX009 (ip), vehicle: saline 98 % of control | [3] 107 % of control and 108 % of control | dose: 200.0 mg/kg/injection, schedule: Q01DX009 (ip), vehicle: saline 101 % of control | dose: 300.0 mg/kg/injection, schedule: Q01DX009 (ip), vehicle: saline 114 % of control

CCOC(=O)c1cnc(C)nc1NCc1ccccc1
inactive: dose: 100.0 mg/kg/injection, schedule: Q01DX001 (ip), vehicle: Klucel (hydroxypropylcellulose) (HPC) 101 % of control | dose: 200.0 mg/kg/injection, schedule: Q01DX001 (ip), vehicle: Klucel (hydroxypropylcellulose) (HPC) 103 % of control | dose: 400.0 mg/kg/injection, schedule: Q01DX001 (ip), vehicle: Klucel (hydroxypropylcellulose) (HPC) 113 % of control

C(=N/N=C/c1cccnc1)/c1cccnc1
inactive: dose: 100.0 mg/kg/injection, schedule: Q01DX001 (ip), vehicle: other 104 % of control | dose: 200.0 mg/kg/injection, schedule: Q01DX001 (ip), vehicle: other 110 % of control | dose: 400.0 mg/kg/injection, schedule: Q01DX001 (ip), vehicle: other 110 % of control

Cc1nn(C2CC(O)C(CO)O2)c(=O)[nH]c1=O (stereo not given)
inactive: dose: 100.0 mg/kg/injection, schedule: Q01DX001 (ip), vehicle: saline 98 % of control | dose: 200.0 mg/kg/injection, schedule: Q01DX001 (ip), vehicle: saline 95 % of control | dose: 400.0 mg/kg/injection, schedule: Q01DX001 (ip), vehicle: saline 93 % of control

COc1ccc(OC(=O)Nc2ccccc2Cl)cc1
inactive: [2] 94 % of control | [8] 95 % of control | [5] 103 % of control | [9] 104 % of control | [10] 103 % of control | [11] 101 % of control

C=CCCC(C)=O
inactive: dose: 100.0 mg/kg/injection, schedule: Q04DX002 (ip), vehicle: saline with Tween-80 102 % of control | dose: 200.0 mg/kg/injection, schedule: Q04DX002 (ip), vehicle: saline with Tween-80 102 % of control | dose: 400.0 mg/kg/injection, schedule: Q04DX002 (ip), vehicle: saline with Tween-80 102 % of control

O=C1C(Cl)=C(Nc2ccc(Cl)c(Cl)c2)C(=O)c2ccccc21
inactive: [12] 98 % of control | [13] 92 % of control | [14] 98 % of control

CCCCCCCCCCCCCCCC=C(C)C
inactive: [7] 101 % of control | dose: 200.0 mg/kg/injection, schedule: Q01DX001 (ip), vehicle: saline with Tween-80 103 % of control

CC(NC1=NCCO1)c1cccc2ccccc12 (stereo not given)
inactive: dose: 25.0 mg/kg/injection, schedule: Q01DX009 (ip), vehicle: saline with Tween-80 94 % of control | dose: 50.0 mg/kg/injection, schedule: Q01DX009 (ip), vehicle: saline with Tween-80 94 % of control | [12] 96 % of control | [13] 94 % of control | [14] 89 % of control

OC(C1COC(CBr)O1)C(O)C1COC(CBr)O1 (stereo not given)
inactive: dose: 100.0 mg/kg/injection, schedule: Q04DX002 (ip), vehicle: Klucel (hydroxypropylcellulose) (HPC) 117 % of control and 113 % of control | dose: 200.0 mg/kg/injection, schedule: Q04DX002 (ip), vehicle: Klucel (hydroxypropylcellulose) (HPC) 98 % of control and 103 % of control | dose: 400.0 mg/kg/injection, schedule: Q04DX002 (ip), vehicle: Klucel (hydroxypropylcellulose) (HPC) 95 % of control

CN(C)C(=S)N=Nc1c(O)[nH]c2ccccc12
inactive: dose: 75.0 mg/kg/injection, schedule: Q01DX001 (ip), vehicle: other 103 % of control | dose: 150.0 mg/kg/injection, schedule: Q01DX001 (ip), vehicle: other 96 % of control | dose: 300.0 mg/kg/injection, schedule: Q01DX001 (ip), vehicle: other 105 % of control

O=[N+]([O-])c1ccc(N/N=C/c2ccc(/C=N/Nc3ccc([N+](=O)[O-])cc3)cc2)cc1
inactive: dose: 15.0 mg/kg/injection, schedule: Q01DX Z (ip), vehicle: carboxymethylcellulose (CMC) 116 % of control | dose: 30.0 mg/kg/injection, schedule: Q01DX Z (ip), vehicle: carboxymethylcellulose (CMC) 104 % of control | dose: 60.0 mg/kg/injection, schedule: Q01DX Z (ip), vehicle: carboxymethylcellulose (CMC) 98 % of control and 106 % of control | dose: 120.0 mg/kg/injection, schedule: Q01DX Z (ip), vehicle: carboxymethylcellulose (CMC) 96 % of control and 98 % of control | dose: 240.0 mg/kg/injection, schedule: Q01DX Z (ip), vehicle: carboxymethylcellulose (CMC) 98 % of control | dose: 240.0 mg/kg/injection, schedule: Q01DX Z (oral), vehicle: carboxymethylcellulose (CMC) 103 % of control | dose: 480.0 mg/kg/injection, schedule: Q01DX Z (ip), vehicle: carboxymethylcellulose (CMC) 95 % of control | dose: 480.0 mg/kg/injection, schedule: Q01DX Z (oral), vehicle: carboxymethylcellulose (CMC) 103 % of control | dose: 960.0 mg/kg/injection, schedule: Q01DX Z (oral), vehicle: carboxymethylcellulose (CMC) 103 % of control

O=C(NCCNC(=O)Nc1ccc(Cl)cc1)Nc1ccc(Cl)cc1
inactive: [2] 96 % of control | [8] 98 % of control | [5] 94 % of control | [9] 93 % of control | [10] 91 % of control | [11] 92 % of control
